Values joined by “and” are separate entries in the source; they are usually repeats but may differ in a detail not shown here. Equal entries are not always repeated.
Key:
Swiss mice [1] = settings: Moreira and Guimarães, 2005; cited from earlier work
Swiss mice [2] = settings: cited from earlier work
[3] = Campos & Guimarães, 2008; cited from earlier work
Swiss mice [4] = settings: single administration i.p., MK801 0.3-1 mg/kg i.p., also tested 1 and 15 mg/kg; cited from earlier work
mice tested in the FST [5] = settings: i.p., Swiss mice; doses tested 3, 10, 30 and 100 mg/kg; cited from earlier work
[6] = tested on: rats submitted to the elevated plus maze; settings: intra-dlPAG, same paradigm; doses tested: 15, 30 and 60 nmol; cited from earlier work
mice tested in the FST [7] = assay: Forced swimming test (FST) in mice; assay type: in vivo, Swiss mice; settings: for immobility time in the FST: IP
Experimental: (§1) Male Wistar rats (220-250 g) and Swiss mice (25-30 g) originated from the Central Animal Farm of the School of Medicine of Ribeirão Preto (FMRP-USP) were maintained in groups of five animals per box (41×33×17 cm) in a temperature controlled room (24±2° C.) with a 12×12 h light-dark cycle. They received water and food ad libitum throughout the study period.
(§2) HU-474 (1, 3 and 10 mg/kg) was administered intraperitoneally (IP) in mice at 10 mL/kg volume and HU-475 (1, 3 and 10 nmol) was injected intra-dlPAG in rats. Both drugs were dissolved in 2% Tween 80 in sterile saline.
Animals were individually submitted for 6 min of forced swimming in glass cylinders (height 25 cm, diameter 17 cm) containing 10 cm of water. The mice were videotaped and the immobility time (characterized by slow movements necessary to avoid drowning) was measured during the last 4-min period. The water was changed after each trial to maintain the temperature at 23-25° C. and to prevent the influence of alarm substances (Zanelati et al., 2010).
(§3) Results from HU-475 and HU-474 tests in the elevated plus maze were analyzed by Kruskal-Wallis followed by Mann-Whitney tests. Data from animals tested in the FST were analyzed by one-way ANOVA followed by Duncan test.

C57BL/6J mice = assay: Pre-pulse inhibition (PPI) test, impairment induced by MK-801; assay type: in vivo
Experimental: The experiments were performed using male C57BL/6J mice weighting 25-30 g. The animals were maintained throughout the experimental period under standard laboratory conditions with free access to water and food will be used.
HU-474 (3 and 10 mg/kg) was dissolved in 2% Tween 80 in sterile saline (vehicle). MK-801 (a NMDA antagonist, 0.5 mg/kg, Sigma, USA) was dissolved in saline. Drugs were administered intraperitoneally (ip) at 10 mL/kg volume.
The animals (n=9-11/group) received i.p. administration of vehicle or HU-474 (3 and 10 mg/kg) followed, 30 minutes later, by saline or MK-801 (0.5 mg/kg), resulting in the following experimental groups: vehicle+saline, HU 10+saline, vehicle+MK-801, HU 3+MK-801, HU 10+MK-801. The animals were submitted to PPI test 20 minutes after the last drug injection.
The PPI was carried out in three consecutive steps. The first consisted of an acclimation period during which no stimulus was presented. In the second step, called habituation, only the stimulus that triggers the startle (pulse) was presented. The step that assessed the inhibition of startle response pulse consisted of 64 random presentations of the different stimuli: (i) pulse (white noise) 105 dB at 20 ms, (II) pre-pulse (pure tone frequency of 7 kHz) 80, 85 and 90 dB at 10 ms, (III) followed by pre-pulse 100 ms interval between them and (IV) zero (no stimulus). During this session the stimuli are presented at regular intervals of 30 s, 8 presentations of each stimulus. The percentage of the PPI was expressed as the percent inhibition of startle amplitude in response to multiple presentations of the pulse preceded by pre-pulse (PP), depending on the amplitude of the response only to the pulse (P), which was obtained in the following formula: % PPI=100−((PP/P)×100). […]
The percentage of PPI was analyzed by repeated measures MANOVA with the treatment as the independent factor and the prepulse intensity (80, 85 and 90 dB) as repeated measure.

[8] = tested on: mice tested in the elevated plus maze; assay: Elevated plus-maze (EPM) in mice, systemic (IP) administration; assay type: in vivo, Swiss mice
Experimental: as §1, §2
The wood EPM used to perform the experiments was located in a sound attenuated and temperature controlled room (23° C.), with one incandescent light (40 W) placed 1.3 m away from the maze. The apparatus consists of two opposing open arms (50×10 cm) without side walls, perpendicular to two enclosed arms (50×10×40 cm), with a central platform common to all arms (10×10 cm). The apparatus is elevated 50 cm above the ground and has an acrylic edge (1 cm) in the open arms to prevent animal falls. In this model, rodents naturally avoid the open arms, exploring more extensively the enclosed arms. Anxiolytic drugs increase the exploration in open arms without affecting the number of enclosed arms entries, which is usually used to assess general exploratory activity (File, 1992). Ten minutes after the last injection the animal was placed on the central platform of the maze with the head facing one of the enclosed arms. The test lasted for 5 min and was recorded. The animal behavior was analyzed with the help of the Anymaze Software (version 4.5, Stoelting). This software indicates the location of the animal in the EPM and automatically calculates the percentage of entries (Peo) and time spent in the open arms (Pto) and the number of entries in the enclosed arms (EA). Animals were only considered to enter an open or enclosed arm when 90% of their bodies were inside the region. All experiments were performed in the morning period (8 to 12 a.m.).
Similar to 5.1 except that the each arm measured 30×5 cm.
as §3

[9] = tested on: rats submitted to the elevated plus maze; assay: Elevated plus-maze (EPM), intra-dlPAG microinjection in rats; assay type: in vivo, Wistar rats
Experimental: as §1, §2
Rats were submitted to a stereotaxic surgery to unilaterally implant cannulae (9.0 mm, 0.6 mm OD) into the dlPAG (coordinates: lateral: −1.9 mm; depth: −4.3 mm; angle: 16° from lambda; Paxinos and Watson, 2005), fixed to the skull with acrylic cement (Campos & Guimarães, 2008). The surgeries were performed under anesthesia with tribromoethanol 2.5% (10.0 mL/kg, IP) and immediately after the animals received Veterinary Pentabiotic (0.2 mL, intramuscular) and analgesic (Banamine, 1.0 mL/kg, subcutaneous) to prevent infections and decrease post-surgical pain. After surgery, animals underwent a recovery period of 5-7 days before the behavioral tests.
Animals received unilateral microinjections of vehicle or HU-475 into the dlPAG before being submitted to the behavioral tests. To this aim, microneedles (10.0 mm, 0.3 mm OD), connected to a microsyringe (Hamilton, USA, […]) through a segment of polyethylene (P10) were inserted into the guide cannulae. Solutions were injected with the help of an infusion pump (KD Scientific, USA). A 0.2 μL solution volume was injected over 1 min. After the injections, the needles remained inserted in the cannulae for additional 30 seconds to prevent drug reflux (Campos & Guimarães, 2008).
The wood EPM used to perform the experiments was located in a sound attenuated and temperature controlled room (23° C.), with one incandescent light (40 W) placed 1.3 m away from the maze. The apparatus consists of two opposing open arms (50×10 cm) without side walls, perpendicular to two enclosed arms (50×10×40 cm), with a central platform common to all arms (10×10 cm). The apparatus is elevated 50 cm above the ground and has an acrylic edge (1 cm) in the open arms to prevent animal falls. In this model, rodents naturally avoid the open arms, exploring more extensively the enclosed arms. […] The test lasted for 5 min and was recorded. The animal behavior was analyzed with the help of the Anymaze Software (version 4.5, Stoelting). […]
as §3

C=C(C)[C@@H]1CCC(C)=C[C@H]1c1c(O)cc(CCCCC)cc1O [CBD, cannabidiol]
dose able to attenuate the hyper-locomotion induced by MK801 (Swiss mice [1]): 30 mg/kg
effective doses (hyperlocomotion induced by d-amphetamine) (Swiss mice [2]): 30 mg/kg and 60 mg/kg
dose producing an anxiolytic-like effect in the Vogel punished licking test [3]: 30 nmol
effective dose (attenuation of PPI deficits caused by MK801) (Swiss mice [4]): 5 mg/kg
dose producing an antidepressant-like effect in the forced swimming test (mice tested in the FST [5]): 30 mg/kg
effective dose (anxiolytic-like effect, EPM) [6]: 30 nmol

C=C(C)[C@@H]1CCC(C)=CC1c1c(O)cc(CCCCC)c(F)c1O (some centres unmarked) [HU-474, 4′-fluoro-cannabidiol]
immobility time in the FST (mice tested in the FST [7]; dose of 3 m/kg, p=0.019, FIG. 5): decreased
immobility time in the FST (mice tested in the FST [7]; doses of 1 and 10 mg/kg): ineffective
potency relative to CBD (forced swimming test) (mice tested in the FST [7]; i.p., compared with CBD effective dose): 10 times
MK-801 PPI disruption (effect of treatment) (C57BL/6J mice; HU-474 10 mg/kg i.p., MK-801 0.5 mg/kg, all prepulse intensities (80, 85, 90 dB), P<0.05, FIG. 6): attenuated
effective dose (attenuation of MK-801 PPI disruption) (C57BL/6J mice; i.p., C57BL/6J mice): 10 mg/kg
number of enclosed arms entries ([8]; HU-474 1, 3 and 10 mg/kg IP): No effect
percentage of entries onto the open arms ([8]; HU-474 1, 3 and 10 mg/kg IP, FIG. 4): No effect
percentage of time spent in the open arms ([8]; HU-474 1, 3 and 10 mg/kg IP, X^2=8.13, DF=3, p<0.05, FIG. 3): increased
effective dose (anxiolytic-like effects, EPM) ([8]; systemic administration, bell-shaped dose-response curve): 3 mg/kg

C[C@]12N[C@H](Cc3ccccc31)c1ccccc12 [MK-801, reference compound]
effect on PPI (C57BL/6J mice; MK-801 0.5 mg/kg i.p., all prepulse intensities tested, P<0.05, Duncan post-test): significant PPI disruption

C=C(CF)[C@@H]1CCC(C)=CC1c1c(OC(C)=O)cc(CCCCC)cc1OC(C)=O (some centres unmarked) [HU-475, 10-fluoro-cannabidiol diacetate]
number of enclosed arm entries ([9]; HU-475 1, 3 and 10 nmol intra-dlPAG): No effect
percentage of time spent into the open arms ([9]; HU-475 1, 3 and 10 nmol intra-dlPAG, X^2=8.5, DF=4, p=0.075, FIG. 2): tended to do the same
percentage of entries onto the open arms ([9]; HU-475 1, 3 and 10 nmol intra-dlPAG, X^2=9.66, DF=4, p<0.05, FIG. 1): increased
potency relative to CBD (EPM, intra-dlPAG) ([9]; intra-dlPAG, compared with CBD effective dose): 10 times

Reference: patent publication US9782360B2, “Fluorinated CBD compounds, compositions and uses thereof” (YISSUM RESEARCH DEVELOPMENT COMPANY OF THE HEBREW …, priority 2013, dated 2017)
